For orientation: IC50 means the concentration needed to halve the response being measured.

These results are taken from patent publication US10933063B2 (priority 2017, dated 2021).

In the experiment the target is BTK (Homo sapiens (Human), UniProt Q06187). Description: biochemical.
BTK, sequence (Q06187 whole entry, looked up, species assumed): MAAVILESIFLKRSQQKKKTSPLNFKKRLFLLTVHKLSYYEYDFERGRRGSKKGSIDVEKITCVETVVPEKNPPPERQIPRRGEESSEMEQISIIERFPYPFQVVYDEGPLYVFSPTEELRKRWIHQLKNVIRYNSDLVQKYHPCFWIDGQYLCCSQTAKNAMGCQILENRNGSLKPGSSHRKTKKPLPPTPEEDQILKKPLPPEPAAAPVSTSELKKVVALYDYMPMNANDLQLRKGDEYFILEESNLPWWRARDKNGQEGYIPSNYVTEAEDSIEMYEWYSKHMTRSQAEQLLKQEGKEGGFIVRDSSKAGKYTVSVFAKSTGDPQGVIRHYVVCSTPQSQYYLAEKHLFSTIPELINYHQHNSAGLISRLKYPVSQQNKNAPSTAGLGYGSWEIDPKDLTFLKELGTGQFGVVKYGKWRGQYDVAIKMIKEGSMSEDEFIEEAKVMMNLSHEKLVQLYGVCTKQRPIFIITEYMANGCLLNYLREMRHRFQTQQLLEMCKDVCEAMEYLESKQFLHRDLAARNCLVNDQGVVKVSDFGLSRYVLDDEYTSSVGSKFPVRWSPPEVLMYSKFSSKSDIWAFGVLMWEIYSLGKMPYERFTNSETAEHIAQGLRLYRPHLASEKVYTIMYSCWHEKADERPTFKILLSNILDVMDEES

`C=CC(=O)N1CCCC[C@H]1c1nc(-c2ccc(COc3ccc(F)c(F)c3)cc2)c2cnccn12` [Example 148, (S)-1-(2-(1-(4-((3,4-difluorophenoxy)methyl)phenyl)imidazo[1,5-a]pyrazin-3-yl)piperidin-1-yl)prop-2-en-1-one] displayed an IC50 of 100 to 1000 nM.
The same measure for `CC#CC(=O)N1CCCC[C@H]1c1nc(-c2ccc(COc3ccc(F)c(F)c3)cc2)c2cnccn12` [Example 149, (S)-1-(2-(1-(4-((3,4-difluorophenoxy)methyl)phenyl)imidazo[1,5-a]pyrazin-3-yl)piperidin-1-yl)but-2-yn-1-one]: 1000 to 10000 nM; for `C=CC(=O)N1CCCC[C@H]1c1nc(-c2ccc(COc3ccc(F)c(F)c3)cc2)c2c(C)nccn12` [Example 150, (S)-1-(2-(1-(4-((3,4-difluorophenoxy)methyl)phenyl)-8-methylimidazo[1,5-a]pyrazin-3-yl)piperidin-1-yl)prop-2-en-1-one]: 10 to 100 nM; for `CC#CC(=O)N1CCCC[C@H]1c1nc(-c2ccc(COc3ccc(F)c(F)c3)cc2)c2c(C)nccn12` [Example 151, (S)-1-(2-(1-(4-((3,4-difluorophenoxy)methyl)phenyl)-8-methylimidazo[1,5-a]pyrazin-3-yl)piperidin-1-yl)but-2-yn-1-one]: 100 to 1000 nM.
To `CC#CC(=O)N1CCCC[C@H]1c1nc(-c2ccc(OCc3cccc(F)c3)cc2)c2cnccn12` [Example 153, (S)-1-(2-(1-(4-((3-fluorobenzyl)oxy)phenyl)imidazo[1,5-a]pyrazin-3-yl)piperidin-1-yl)but-2-yn-1-one] belongs 1000 to 10000 nM; to `C=CC(=O)N1CCCC[C@H]1c1nc(-c2ccc(OCc3cccc(F)c3F)cc2)c2c(C)nccn12` [Example 154, (S)-1-(2-(1-(4-((2,3-difluorobenzyl)oxy)phenyl)-8-methylimidazo[1,5-a]pyrazin-3-yl)piperidin-1-yl)prop-2-en-1-one], 10 to 100 nM.
To `CC#CC(=O)N1CCCC[C@H]1c1nc(-c2ccc(OCc3cccc(F)c3F)cc2)c2c(C)nccn12` [Example 155, (S)-1-(2-(1-(4-((2,3-difluorobenzyl)oxy)phenyl)-8-methylimidazo[1,5-a]pyrazin-3-yl)piperidin-1-yl)but-2-yn-1-one] belongs 100 to 1000 nM; to `C=CC(=O)N1CCCC[C@H]1c1nc(-c2ccc(COc3cccc(F)c3)cc2)c2c(C)nccn12` [Example 156, (S)-1-(2-(1-(4-((3-fluorophenoxy)methyl)phenyl)-8-methylimidazo[1,5-a]pyrazin-3-yl)piperidin-1-yl)prop-2-en-1-one], 10 to 100 nM.
`CC#CC(=O)N1CCCC[C@H]1c1nc(-c2ccc(COc3cccc(F)c3)cc2)c2c(C)nccn12` [Example 157, (S)-1-(2-(1-(4-((3-fluorophenoxy)methyl)phenyl)-8-methylimidazo[1,5-a]pyrazin-3-yl)piperidin-1-yl)but-2-yn-1-one]: the IC50 lay in the range of 100 to 1000 nM.
To `C=CC(=O)N1CCCC[C@H]1c1nc(-c2ccc(COc3cccc(F)c3F)cc2)c2cnccn12` [Example 158, (S)-1-(2-(1-(4-((2,3-difluorophenoxy)methyl)phenyl)imidazo[1,5-a]pyrazin-3-yl)piperidin-1-yl)prop-2-en-1-one] belongs 100 to 1000 nM.
To `CC#CC(=O)N1CCCC[C@H]1c1nc(-c2ccc(COc3cccc(F)c3F)cc2)c2cnccn12` [Example 159, (S)-1-(2-(1-(4-((2,3-difluorophenoxy)methyl)phenyl)imidazo[1,5-a]pyrazin-3-yl)piperidin-1-yl)but-2-yn-1-one] belongs 1000 to 10000 nM.
To `CC#CC(=O)N1CCC[C@H]1c1nc(-c2ccc(COc3cccc(OC)c3F)cc2)c2cnccn12` [Example 160, (S)-1-(2-(1-(4-((2-fluoro-3-methoxyphenoxy)methyl)phenyl)imidazo[1,5-a]pyrazin-3-yl)pyrrolidin-1-yl)but-2-yn-1-one] belongs 1000 to 10000 nM; to `C=CC(=O)N1CCC[C@H]1c1nc(-c2ccc(COc3cccc(OC)c3F)cc2)c2cnccn12` [Example 161, (S)-1-(2-(1-(4-((2-fluoro-3-methoxyphenoxy)methyl)phenyl)imidazo[1,5-a]pyrazin-3-yl)pyrrolidin-1-yl)prop-2-en-1-one], 10 to 100 nM; to `C=CC(=O)N1CCCC[C@H]1c1nc(-c2cccc(OCc3cccc(C(F)(F)F)c3)c2)c2c(C)nccn12` [Example 162, (S)-1-(2-(8-methyl-1-(3-((3-(trifluoromethyl)benzyl)oxy)phenyl)imidazo[1,5-a]pyrazin-3-yl)piperidin-1-yl)prop-2-en-1-one], 1000 to 10000 nM.
As to `CC#CC(=O)N1CCCC[C@H]1c1nc(-c2cccc(OCc3cccc(C(F)(F)F)c3)c2)c2c(C)nccn12` [Example 163, (S)-1-(2-(8-methyl-1-(3-((3-(trifluoromethyl)benzyl)oxy)phenyl)imidazo[1,5-a]pyrazin-3-yl)piperidin-1-yl)but-2-yn-1-one], the concentration for half-maximal inhibition (IC50) is 1000 to 10000 nM.
The same measure for `CC#CC(=O)N1CCC[C@H]1c1nc(-c2ccc(C(=O)Nc3cccc(OC)c3F)cc2)c2cnccn12` [Example 164, (S)-4-(3-(1-(But-2-ynoyl)pyrrolidin-2-yl)imidazo[1,5-a]pyrazin-1-yl)-N-(2-fluoro-3-methoxyphenyl)benzamide]: 1000 to 10000 nM; for `C=CC(=O)N1CCC[C@H]1c1nc(-c2ccc(C(=O)Nc3cccc(OC)c3F)cc2)c2cnccn12` [Example 165, (S)-4-(3-(1-acryloylpyrrolidin-2-yl)imidazo[1,5-a]pyrazin-1-yl)-N-(2-fluoro-3-methoxyphenyl)benzamide]: 100 to 1000 nM; for `CC#CC(=O)N1CCC[C@H]1c1nc(-c2ccc(C(=O)Nc3ccccn3)cc2)c2cnccn12` [Example 166, (S)-4-(3-(1-(but-2-ynoyl)pyrrolidin-2-yl)imidazo[1,5-a]pyrazin-1-yl)-N-(pyridin-2-yl) benzamide]: 1000 to 10000 nM.
To `CC#CC(=O)N1CCC[C@@H](c2nc(-c3ccc(C(=O)Nc4ccccn4)cc3)c3cnccn23)C1` [Example 167, (R)-4-(3-(1-(but-2-ynoyl)piperidin-3-yl)imidazo [1,5-a]pyrazin-1-yl)-N-(pyridin-2-yl)benzamide] belongs 1000 to 10000 nM; to `C=CC(=O)N1CCCC[C@H]1c1nc(-c2ccc(C(=O)Nc3ccccn3)cc2)c2cnccn12` [Example 168, (S)-4-(3-(1-acryloylpiperidin-2-yl)imidazo[1,5-a]pyrazin-1-yl)-N-(pyridin-2-yl) benzamide], 10 to 100 nM; to `CC#CC(=O)N1CCCC[C@H]1c1nc(-c2ccc(C(=O)Nc3ccccn3)cc2)c2cnccn12` [Example 169, (S)-4-(3-(1-(but-2-ynoyl)piperidin-2-yl)imidazo [1,5-a]pyrazin-1-yl)-N-(pyridin-2-yl)benzamide], 100 to 1000 nM.
The same measure for `CC#CC(=O)N1CCCC[C@H]1c1nc(-c2ccc(C(=O)Nc3ccccn3)cc2)c2c(C)nccn12` [Example 171, (S)-4-(3-(1-(but-2-ynoyl)piperidin-2-yl)-8-methylimidazo[1,5-a]pyrazin-1-yl)-N-(pyridin-2-yl)benzamide]: 10 to 100 nM.
In turn, `C=CC(=O)N1CCC[C@H]1c1nc(-c2ccc(C(=O)Nc3ccccn3)cc2)c2cncc(C)n12` [Example 172, (S)-4-(3-(1-aeryloylpyrrolidin-2-yl)-5-methylimidazo [1,5-a]pyrazin-l-yl)-N-(pyridin-2-yl)benzamide] came in with a half-maximal inhibitory concentration (IC50) of 10 to 100 nM.
The same measure for `CC#CC(=O)N1CCC[C@H]1c1nc(-c2ccc(C(=O)Nc3ccccn3)cc2)c2cncc(C)n12` [Example 173, (S)-4-(3-(1-(but-2-ynoyl)pyrrolidin-2-yl)-5-methylimidazo[1,5-a]pyrazin-1-yl)-N-(pyridin-2-yl)benzamide]: 1000 to 10000 nM.
The same measure for `CC#CC(=O)N1CCC[C@H]1c1nc(-c2ccc(C(=O)Nc3ccccn3)cc2)c2c(C)ncc(C)n12` [Example 175, (S)-4-(3-(1-(but-2-ynoyl)pyrrolidin-2-yl)-5,8-dimethylimidazo[1,5-a]pyrazin-1-yl)-N-(pyridin-2-yl)benzamide]: 100 to 1000 nM; for `C=CC(=O)N1CC[C@@H](c2nc(-c3ccc(C(=O)Nc4ccccn4)cc3)c3cnccn23)C1` [Example 176, (R)-4-(3-(1-acryloylpyrrolidin-3-yl)imidazo[1,5-a]pyrazin-1-yl)-N-(pyridin-2-yl)benzamide]: 10 to 100 nM.
The same measure for `C=CC(=O)N1CCC[C@@H](c2nc(-c3ccc(C(=O)Nc4ccccn4)cc3)c3cncc(C)n23)C1` [Example 178, (R)-4-(3-(1-acryloylpiperidin-3-yl)-5-methylimidazo [1,5-a]pyrazin-1-yl)-N-(pyridin-2-yl)benzamide]: 100 to 1000 nM.
`CC#CC(=O)N1CCC[C@@H](c2nc(-c3ccc(C(=O)Nc4ccccn4)cc3)c3cncc(C)n23)C1` [Example 179, (R)-4-(3-(1-(but-2-ynoyl)piperidin-3-yl)-5-methylimidazo[1,5-a]pyrazin-1-yl)-N-(pyridin-2-yl)benzamide] displayed an IC50 of 1000 to 10000 nM.
Compound `CC#CC(=O)N1CC[C@@H](c2nc(-c3ccc(C(=O)Nc4ccccn4)cc3)c3cncc(C)n23)C1` [Example 181, (R)-4-(3-(1-(but-2-ynoyl)pyrrolidin-3-yl)-5-methylimidazo[1,5-a]pyrazin-1-yl)-N-(pyridin-2-yl)benzamide] came in with an IC50 of 1000 to 10000 nM.
In turn, `C=CC(=O)N1CC[C@@H](c2nc(-c3ccc(C(=O)Nc4ccccn4)cc3)c3c(C)ncc(C)n23)C1` [Example 182, (R)-4-(3-(1-acryloylpyrrolidin-3-yl)-5,8-dimethylimidazo [1,5-a]pyrazin-1-yl)-N-(pyridin-2-yl)benzamide] displayed a half-maximal inhibitory concentration (IC50) of 10 to 100 nM.
The same measure for `CC#CC(=O)N1CC[C@@H](c2nc(-c3ccc(C(=O)Nc4ccccn4)cc3)c3c(C)ncc(C)n23)C1` [Example 183, (R)-4-(3-(1-(but-2-ynoyl)pyrrolidin-3-yl)-5,8-dimethylimidazo[1,5-a]pyrazin-1-yl)-N-(pyridin-2-yl)benzamide]: 100 to 1000 nM; for `CC#CC(=O)N1CCC[C@@H](c2nc(-c3ccc(C(=O)Nc4ccccn4)cc3)c3c(C)ncc(C)n23)C1` [Example 185, (R)-4-(3-(1-(but-2-ynoyl)piperidin-3-yl)-5,8-dimethylimidazo[1,5-a]pyrazin-1-yl)-N-(pyridin-2-yl)benzamide]: 100 to 1000 nM.
